Test results: ChEMBL document CHEMBL4354815, “Fibrinolysis Inhibitors: Potential Drugs for the Treatment and Prevention of Bleeding” (J Med Chem, 2020)
One block for each compound: values may come before it.

Assays:
Plasma = test: Anti-fibrinolytic activity in 5% human plasma in presence of fibrinogen by spectrophotometric method; type: functional, cell-free
Plasminogen [1] = target: T1, Plasminogen (Homo sapiens, UniProt P00747); test: Inhibition of human plasmin preincubated for 15 mins followed by MeOSuc-Ala-Phe-Lys-AMC substrate addition and measured after 30 mins by fluorescence method
T1 sequence (P00747 97-580 limits assumed): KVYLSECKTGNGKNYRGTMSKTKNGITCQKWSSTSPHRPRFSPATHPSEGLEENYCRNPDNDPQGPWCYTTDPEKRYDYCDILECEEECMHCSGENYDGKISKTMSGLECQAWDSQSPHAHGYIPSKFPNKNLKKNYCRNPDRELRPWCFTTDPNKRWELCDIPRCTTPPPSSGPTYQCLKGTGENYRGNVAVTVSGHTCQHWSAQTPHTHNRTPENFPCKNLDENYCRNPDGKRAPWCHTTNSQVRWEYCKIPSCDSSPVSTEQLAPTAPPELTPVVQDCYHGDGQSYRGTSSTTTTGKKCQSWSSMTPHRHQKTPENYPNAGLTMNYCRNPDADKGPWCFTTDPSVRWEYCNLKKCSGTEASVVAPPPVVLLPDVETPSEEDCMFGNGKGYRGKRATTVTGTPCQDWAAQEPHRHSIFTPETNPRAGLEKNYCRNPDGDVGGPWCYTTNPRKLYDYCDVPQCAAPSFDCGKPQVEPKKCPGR
T1 sequence (P00747 581-810 limits assumed): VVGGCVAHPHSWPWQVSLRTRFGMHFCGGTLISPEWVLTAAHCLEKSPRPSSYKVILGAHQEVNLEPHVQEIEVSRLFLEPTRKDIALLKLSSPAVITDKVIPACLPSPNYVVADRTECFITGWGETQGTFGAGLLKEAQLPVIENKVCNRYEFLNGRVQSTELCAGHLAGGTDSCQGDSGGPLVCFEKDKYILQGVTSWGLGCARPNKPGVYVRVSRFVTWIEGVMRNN

Plasma kallikrein [2] = target: T2, Plasma kallikrein (Homo sapiens, UniProt P03952); test: Inhibition of human plasma kallikrein preincubated for 15 mins followed by H-Pro-Phe-Arg-AMC substrate addition and measured after 30 mins by fluorescence method
T2 sequence (P03952 20-390 limits assumed): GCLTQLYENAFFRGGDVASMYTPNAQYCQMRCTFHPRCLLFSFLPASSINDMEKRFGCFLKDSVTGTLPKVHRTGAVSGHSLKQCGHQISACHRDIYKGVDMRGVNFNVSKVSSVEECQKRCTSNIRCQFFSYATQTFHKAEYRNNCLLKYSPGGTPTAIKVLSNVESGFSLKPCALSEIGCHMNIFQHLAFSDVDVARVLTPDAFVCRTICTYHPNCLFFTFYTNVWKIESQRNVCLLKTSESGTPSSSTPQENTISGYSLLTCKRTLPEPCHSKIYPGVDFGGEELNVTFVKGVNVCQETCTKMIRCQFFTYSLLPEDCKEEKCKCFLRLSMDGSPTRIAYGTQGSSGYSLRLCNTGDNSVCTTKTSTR
T2 sequence (P03952 391-638 limits assumed): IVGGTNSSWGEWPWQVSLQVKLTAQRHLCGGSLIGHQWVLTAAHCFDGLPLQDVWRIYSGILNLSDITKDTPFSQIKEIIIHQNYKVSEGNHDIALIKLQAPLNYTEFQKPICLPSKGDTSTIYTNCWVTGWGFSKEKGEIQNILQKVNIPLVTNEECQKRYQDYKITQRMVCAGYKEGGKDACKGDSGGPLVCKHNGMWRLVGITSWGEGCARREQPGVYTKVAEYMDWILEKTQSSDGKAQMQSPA

Coagulation factor XI = Coagulation factor XI (Homo sapiens, UniProt P03951); test: Inhibition of human factor 11a preincubated for 15 mins followed by Boc-Glu (OBzl) -Ala-Arg-AMC and measured after 30 mins by fluorescence method
Coagulation factor XI, sequence (P03951 19-387 limits assumed): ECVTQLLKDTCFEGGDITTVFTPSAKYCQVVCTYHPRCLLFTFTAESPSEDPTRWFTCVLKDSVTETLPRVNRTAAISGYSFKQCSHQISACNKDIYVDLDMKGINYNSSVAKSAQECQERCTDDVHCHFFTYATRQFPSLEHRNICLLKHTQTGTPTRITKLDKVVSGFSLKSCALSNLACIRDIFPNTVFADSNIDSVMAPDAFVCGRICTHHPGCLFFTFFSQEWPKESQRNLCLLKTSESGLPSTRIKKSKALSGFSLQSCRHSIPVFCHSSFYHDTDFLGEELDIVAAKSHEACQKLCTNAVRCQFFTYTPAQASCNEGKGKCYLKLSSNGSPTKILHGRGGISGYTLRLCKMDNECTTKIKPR
Coagulation factor XI, sequence (P03951 388-625 limits assumed): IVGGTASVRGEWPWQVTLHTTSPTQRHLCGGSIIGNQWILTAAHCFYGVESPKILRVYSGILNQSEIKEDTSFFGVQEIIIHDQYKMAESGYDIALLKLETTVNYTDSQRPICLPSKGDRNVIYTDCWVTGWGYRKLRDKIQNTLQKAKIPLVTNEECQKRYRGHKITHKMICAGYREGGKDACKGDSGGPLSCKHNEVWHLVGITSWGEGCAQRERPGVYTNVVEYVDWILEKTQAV

Plasminogen [3] = target: T1, Plasminogen; test: Inhibition of microplasmin (unknown origin) expressed in Pichia pastoris preincubated for 10 mins followed by S2251 substrate addition
Plasminogen [4] = target: T1, Plasminogen; test: Inhibition of plasmin (unknown origin) assessed as reduction in amidolytic activity using S-2251 as the substrate after 4 mins
Plasminogen [5] = target: T1, Plasminogen; test: Inhibition of plasmin (unknown origin)
[6] = target: Urokinase-type plasminogen activator (Homo sapiens, UniProt P00749); test: Inhibition of urokinase-type plasminogen activator (unknown origin)
Plasminogen [7] = target: T1, Plasminogen; test: Inhibition of human plasmin using tosyl-Gly-Pro-Lys-pNA as substrate after 10 mins by UV/Vis photometry
Plasma kallikrein [8] = target: T2, Plasma kallikrein; test: Inhibition of human plasma kallikrein using S2302 as substrate after 10 mins by UV/Vis photometry

IC50 (Plasma): 10 nM
SMILES: C#Cc1cccc2nn3c(C4CCNCC4)cc(=O)[nH]c3c12

IC50 (Plasminogen [1]): 0.87 nM
IC50 (Plasma kallikrein [2]): 7.2 nM
IC50 (Coagulation factor XI): 0.34 nM
SMILES: Cc1cc2nc(C(C)C)[nH]c2cc1-c1ccc(C[C@H](NC(=O)[C@H]2CC[C@H](CN)CC2)C(=O)Nc2ccc(-c3nnc(C(F)(F)C(F)(F)C(=O)O)[nH]3)cc2)cc1

IC50 (Plasminogen [3]): 240 nM
SMILES: CCCCCCCCNC(=O)[C@H](Cc1ccc(OCc2ccncc2)cc1)NC(=O)[C@H]1CC[C@H](CN)CC1

IC50 (Plasma): 11 nM
SMILES: Cc1cc(Cl)c2c(c1)nn1c(C3CCNCC3)cc(=O)[nH]c21

IC50 (Plasminogen [3]): 380 nM
SMILES: CCCCCCCCNC(=O)[C@H](Cc1ccc(OCc2ccc3ccccc3n2)cc1)NC(=O)[C@H]1CC[C@H](CN)CC1

IC50 (Plasma): 10 nM
SMILES: CCc1ccc(C(=O)Nc2cccc3nn4c(C5CCNCC5)cc(=O)[nH]c4c23)cc1

IC50 (Plasminogen [4]): 660000 nM
SMILES: NCCCC[C@H](NC(=O)[C@H]1CC[C@H](CN)CC1)C(=O)NCOc1ccc(C(=O)c2ccccc2)cc1

IC50 (Plasminogen [4]): 69000 nM
SMILES: CC[C@@H](C)[C@@H](N)C(=O)N[C@@H](Cc1ccccc1)C(=O)N[C@@H](CCCCN)C(=O)Nc1ccc(C(=O)c2ccccc2)cc1

IC50 (Plasminogen [1]): 1 nM
IC50 (Plasma kallikrein [2]): 8.5 nM
IC50 (Coagulation factor XI): 21.5 nM
SMILES: CNC(=O)c1ccc(NC(=O)[C@H](Cc2ccc(-c3cc4[nH]cc(C(=O)O)c(=O)c4cc3C)cc2)NC(=O)[C@H]2CC[C@H](CN)CC2)cc1Cl

IC50 (Plasma): 9.1 nM
SMILES: CC(C)(C)NC(=O)Nc1cccc2nn3c(C4CCNCC4)cc(=O)[nH]c3c12

IC50 (Plasminogen [4]): 12000 nM
SMILES: NCCCCCC(=O)N[C@@H](CCCCN)C(=O)Nc1ccc(C(=O)c2ccccc2)cc1

IC50 (Plasma): 6 nM
SMILES: CCCc1noc(-c2c(C)nn3c(C4CCNCC4)cc(=O)[nH]c23)n1

IC50 (Plasminogen [1]): 0.42 nM
IC50 (Plasma kallikrein [2]): 1.7 nM
IC50 (Coagulation factor XI): < 0.13 nM
SMILES: Cc1nc2nc(C(C)C)[nH]c2cc1-c1ccc(C[C@H](NC(=O)[C@H]2CC[C@H](CN)CC2)C(=O)Nc2ccc(-c3nnc(C(F)(F)C(F)(F)C(=O)O)[nH]3)cc2)cc1

Ki (Plasminogen [5]): 36 nM
Ki [6]: 28 nM
SMILES: N=C(N)c1ccc(CNC(=O)[C@H](CCc2ccccc2)NC(=O)[C@@H](CO)NS(=O)(=O)Cc2ccccc2)cc1

IC50 (Plasma): 11 nM
SMILES: O=c1cc(C2CCNCC2)n2nc3ccc(F)c(-c4ccccc4)c3c2[nH]1

IC50 (Plasma): 85 nM
SMILES: O=C(NCc1ccco1)Nc1cccc2nn3c(C4CCNCC4)cc(=O)[nH]c3c12

IC50 (Plasminogen [4]): 200000 nM
SMILES: NC[C@H]1CC[C@H](C(=O)N[C@@H](CCCCNC(=O)OCc2ccccc2)C(=O)COc2ccc(C(=O)c3ccccc3)cc2)CC1

IC50 (Plasma): 8 nM
SMILES: CCC(C)C(=O)c1cnn2c(C3CCNCC3)cc(=O)[nH]c12 (stereo not given)

Ki (Plasminogen [7]): 0.48 nM
Ki (Plasma kallikrein [8]): 0.6 nM
SMILES: N=C(N)c1ccc(CNC(=O)[C@H](CCc2ccncc2)NC(=O)[C@@H](CCCc2ccccc2)NS(=O)(=O)Cc2ccccc2)cc1

IC50 (Plasma): 8 nM
SMILES: O=C(c1cnn2c(C3CCNCC3)cc(=O)[nH]c12)C1CC1

IC50 (Plasminogen [1]): 0.4 nM
IC50 (Coagulation factor XI): 0.7 nM
SMILES: Cc1nc2[nH]c(C3CC3)nc2cc1-c1ccc(C[C@H](NC(=O)[C@H]2CC[C@H](CN)CC2)C(=O)Nc2cc(Cl)c3[nH]c(=O)[nH]c3c2)cc1

IC50 (Plasminogen [1]): 2.1 nM
IC50 (Plasma kallikrein [2]): 0.7 nM
IC50 (Coagulation factor XI): 6.5 nM
SMILES: Cc1cc2c(=O)c(C(=O)O)c[nH]c2cc1-c1ccc(C[C@H](NC(=O)[C@H]2CC[C@H](CN)CC2)C(=O)Nc2cc(Cl)c3[nH]c(=O)[nH]c3c2)cc1

Ki (Plasminogen [7]): 1.1 nM
Ki (Plasma kallikrein [8]): 0.1 nM
SMILES: N=C(N)c1ccc(CNC(=O)[C@H](Cc2cccc(CN)c2)NC(=O)[C@@H](Cc2ccc3ccccc3c2)NS(=O)(=O)Cc2ccccc2)cc1
